# Results as given in patent publication US4937232A, “Inhibition of protein kinase C by long-chain bases” (priority 1988, dated 1990).
# Tests used:
# [1] = tested on: phorbol ester binding site (protein kinase C) of neutrophils; assay: Cellular [3H]-phorbol dibutyrate binding in neutrophils; set-up: species or system human; conditions: 50 μM; 15 min
# Description: Neutrophils (1×10^8 cells/ml) were preincubated with the indicated concentration of sphinganine, palmitic acid, or ceramide for five minutes prior to the addition of 50 nM (final concentration) of [^3 H]-phorbol dibutyrate (specific activity of 8.3 Ci/mMole). The cells were incubated an additional 15 min. in a shaking waterbath at 37° C. The incubation mixtures were filtered using an Amicon filtration manifold model VFM-III and washed 5 times with 5 mls of ice-cold PBS-glucose. The filters were counted using a Beckman LS7000 scintillation counter.
# [2] = tested on: HL-60 cells; assay: [3-3H]sphinganine uptake and metabolism by HL-60 cells; format: in vitro ADME, human
# Description: Approximately 1×10^6 HL-60 cells in 1 ml of medium were mixed with an equal volume of medium containing 2.5 μm [3-^3 H]sphinganine (equimolar with BSA). After varying time intervals, an aliquot of the cells was removed and counted and a portion was extracted as described below. The extracts were applied to Silica gel H plates and developed in CHCl3 :methanol: 2N NH4 OH (40:10:1, v/v/v), air dried, sprayed with Amplify (Amersham), and subjected to fluorography.
# [3] = tested on: human neutrophils; assay: Cytoplasmic calcium concentration (Quin2); format: cell-based; conditions: Sphinganine (30 μM) pretreatment
# Description: Intracellular calcium was measured by the Quin2 method. Briefly, Quin2/acetoxymethylester (50 μM) was preincubated with 1×10^8cell/ml for 20 min. at 37°, prior to 10-fold dilution and continuation of incubation for an additional 40-60 minutes. Cells were reisolated by centrifugation to remove extracellular fluorophore, and fluorescence measurement and calibration were carried out as described by Tsien et al in J. Cell. Biol. 94, 325-334, 1982, using a Perkin-Elmer MPF-44B fluorescence spectrophotometer. Buffer consisted of 140 mM NaCl, 5 mM KCl, 1 mM Na2 PO4, 5.5 mM glucose, 0.5 mM MgSO4, 20 mM Hepes, and 1 mM CaCl2.
# [4] = tested on: HL-60 cells; assay: Dioctanoylglycerol-induced attachment of HL-60 cells; format: cell-based; conditions: Homo sapiens
# Description: When 1,2-dioctanoylglycerol was used, the cells were treated essentially as described by Ebling et al Proc. Natl. Acad. Sci. U.S.A. 82, 815-819, 1985. Sphinganine was added to the cells, then dioctanoylglycerol in 1 μl of ethanol to yield 100 μM, followed by additional maintenance additions of 20 μm diacylglycerol every 2 h for 12 h.
# [5] = tested on: protein kinase M; assay: Activity of the catalytic domain (protein kinase M); format: biochemical, rat
# Description: Under these conditions, the bulk concentration of PS was 260 μM and diC18:1 was 86 μM. Therefore, 50% inhibition (100 μM) occurred on a molar basis equivalent to [diC18:1 ] or to 0.4 of [PS]. The potency of sphingosine inhibition was markedly affected by the number of Triton X-100 mixed micelles containing 7 mol % PS and 1 mol % diC18:1present in the assay (FIG. 11A). Thus, the effect of sphingosine was subject to surface dilution. When the data are expressed as mol %, (sphingosine:Triton X-100), sphingosine inhibition at four different levels of Triton X-100 mixed micelles (containing PS and diC18:1) was identical (FIG. 11B) implying that it is the number of sphingosine molecules present in each mixed micelle that determines the potency and not the absolute concentration. For surface active amphipathic molecules, the expression of inhibitor potencies must be relative to the amount of surface (micelles in this case) as bulk concentrations are misleading. […] To test this hypothesis, the catalytic domain (protein kinase M) was generated by proteolysis of protein kinase C^2. The activity of this catalytic domain which is independent of Ca^2+, phospholipid and DAG/phorbol esters was not inhibited by sphingosine (FIG. 10).
# ^2 The catalytic domain was generated by trypsin treatment of purified protein kinase C; and purified by Ultrogel AcA-44 molecular sieve chromatography. […]
# [6] = tested on: protein kinase C; assay: [3H]PDBu binding to protein kinase C in mixed micelles; set-up: species or system rat; conditions: 16 and 20 mol % PS
# Description: [^3 H]PDBu binding was performed as previously described (26).
# [7] = biological target: protein kinase C; assay: Phorbol-dibutyrate binding to protein kinase C, mixed micellar assay (Table VI); conditions: Triton X-100 mixed micelles, 20 mol % phosphatidylserine
# Description: TABLE VI: Inhibition of protein kinase C activity and phorbol-dibutyrate binding by lysosphingolipids. […] The remaining two columns show the observed effects of the lysosphingolipids of protein kinase C activity and phorbol diester binding in vitro and in human platelets. Lysogangliosides were prepared from their parental gangliosides by hydrolysis in methanolic KOH esentially as described by Neuenhofer et al. in Bioch. 24, 525, 1985. During this preparation, with approximately 90-95% conversion, the N-acetate of N-acetylneuraminic acid is partially hydrolyzed. Fatty acids were partitioned into heptane after acidification of the methanolic reaction mixture. Galactosylsphingosine, glucosylsphingosine, and lactosylsphingosine were prepared as previously described for galactosylsphingosine (Radin, Lipids 9, 358, 1974) Sphingosylphosphorylcholine was prepared by hydrolysis in HCl-butanol (Kaller, Biochemische Zeitschrift 334, 451, 1961). The purity of the lyso derivatives (greater than 90%) was checked by thin layer chromatography (TLC) on silica gel H plates developed in chloroform/methanol/2N NH4 OH (65/35/9) and visualized by ninhydrin reaction for N-lyso compounds, by α-naphthol/sulfuric acid for both gangliosides and lysogangliosides,and by a phospholipid spray for sphingosylphosphorylcholine. Lysosphingolipids were quantitated by reaction of the amine group with trinitrobenzenesulfonate. Gangliosides and lysosphingolipids were also quantitated by reaction with anthrone. The lysosphingolipids were then studied for their effect on protein kinase C activity. Protein kinase C was purified to near homogeneity by the method of Wolf et al. (J. Biol. Chem. 260, 15718, 1985), and activity was measured using a mixed micellar assay (described herein). Lysosphingolipids were added directly in aqueous solution, and allowed to equilibrate with the Triton X-100 (0.3% w/v) mixed micelles containing 6 mol % phosphatidylserine and 2 mol % dioleoylglycerol. […] Phorbol-dibutyrate binding was measured in a mixed micellar assay. Lysosphingolipids inhibited phorbol-dibutyrate binding to protein kinase C in the presence of Triton X-100 mixed micelles containing 20 mol % phosphatidylserine. […] The difference is related to the higher concentration of phosphatidylserine used in the binding assay, as both activity and binding show a high cooperative dependence on phosphatidylserine, which modulates the inhibition by lysosphingolipids. Phorbol-dibutyrate binding to human platelets and 40 kDa phosphorylation in platelets were carried out as described above. Lysosphingolipids inhibited phorbol dibutyrate binding to human platelets at concentrations in the 10-50 μM range. Inhibition of 40 kDa phosphorylation occurred over the same concentration range.
structure (smiles),measurement,setting,value
"CCCCCCCCCCCCCCC[C@@H](O)[C@@H](N)CO (relative stereo) [Sphinganine, erythro-dihydrosphingosine]",displacement of [3H]-phorbol dibutyrate,[1],60%
same,time in which approximately half of the sphinganine was taken up from the medium by the cells,"[2]; [3H]sphinganine, HL-60 cells, 37°",≤ 6 h
same,free [3H]sphinganine associated with the cells,[2]; day 2,0.07 nmol
same,free [3H]sphinganine associated with the cells,[2]; day 3,0.06 nmol
same,"Calcium, Resting",[3],0.20 ± 0.02 µM
same,"Calcium, FMLP-Peak",[3]; 1 μM FMLP,0.66 ± 0.14 µM
same,activity at 1 µM,"[4]; 1.0 μM sphinganine, compared to cells treated with diacylglycerol only, read-out: % Viable cells attached",70 ± 32%
same,activity at 2.5 µM,"[4]; 2.5 μM sphinganine, compared to cells treated with diacylglycerol only, read-out: % Viable cells attached",63 ± 21%
same,activity at 5 µM,"[4]; 5.0 μM sphinganine, compared to cells treated with diacylglycerol only, read-out: % Viable cells attached",50 ± 25%
same,IC50,"[4]; 100 μM dioctanoylglycerol, maintenance doses 20 μM every 2 h, read-out: concentration reducing dioctanoylglycerol-induced adherence by 50%",~5 µM
CCCCCCCCCCCCC/C=C/[C@@H](O)[C@@H](N)CO [sphingosine],inhibition of the catalytic domain (protein kinase M),[5],not inhibited
same,inhibition of phorbol-ester binding to mixed micelles,[6],inhibited
same,"Inhibition of [3H]PDBu Binding to Protein Kinase, (mol %)",[7],9.3 mol %
same,IC50,[7]; read-out: Inhibition of [3H]PDBu Binding to Protein Kinase,400 µM
